Assay: Case study 1, inflammatory bowel disease (ulcerative colitis)
Assay type: in vivo, human
Conditions: same patient, used previously
From the text: A patient with diagnosed ulcerative colitis (one of 2 major forms of IBD) is cited as a case study on the effects of the GOS product, prepared according to Example 1 The patient had suffered from ulcerative colitis for 5 years and was free of medication prior to, and during, the test period. […] The patient had difficulty in digesting foods, was on a standard diet, suffered from nausea, diarrhoea and abdominal pain. The latter was left side large intestine, which correlated with the diagnosis of colitis based inflammation of the descending colon. A total daily GOS dose of 7 g/d (in 2 separate doses) was ingested. Within 4 days of intake, symptoms began to improve. The patient was better able to digest their diet, gut pains began to recede and nausea was reduced. […] The only change to the diet was the addition of GOS. Six weeks later, this effect has been maintained.

Compound: O=C(O)c1cc(/N=N/c2ccc(S(=O)(=O)Nc3ccccn3)cc2)ccc1O [sulphasalazine]
- effect of earlier treatment on ulcerative colitis: no positive effect

Source: patent publication US7883874B2, “Galactooligosaccharide composition and the preparation thereof” (Clasado Inc., priority 2003, dated 2011)
